According to patent EP2502917A1, “Solid state crystalline forms of 4-(2-ethyl-5-fluoro-2,3-dihydro-1H-inden-2-yl)-1H-imidazole” (Santhera Pharmaceuticals (Schweiz) AG, priority 2011, dated 2012):

Columns and labels:
[1] = Aqueous solubility by UV/Vis spectroscopy (extinction at 270 nm) of the filtered suspension; assay type: physicochemical; details: remaining solid is form A, aliquot diluted by a factor of 500, extinction at 270 nm
Procedure: A suspension of 118 mg fipamezole hydrochloride form B in 1 mL H2O is stirred at room temperature for two days. […] An aliquot of the solution is diluted with water by a factor of 500 and analyzed by UVNis spectroscopy.
A suspension of 97 mg fipamezole hydrochloride form B* in 0.5 mL H2O is stirred at room temperature for two days. […] An aliquot of the solution is diluted with water by a factor of 500 and analyzed by UVNis spectroscopy.
A suspension of 110 mg fipamezole hydrochloride form D in 0.5 mL H2O is stirred at room temperature for two days. […] An aliquot of the solution is diluted with water by a factor of 500 and analyzed by UVNis spectroscopy.

[2] = Thermodynamic stability of polymorphs (differential scanning calorimetry); assay type: physicochemical; details: enantiotropic pair: form A is the low temperature form, form D the high temperature form
Procedure: Both forms can be converted into each other, accordingly, forms A and D represent an enantiotropic pair of polymorphs whereby form A is the low temperature form and form D the high temperature form. Differential Scanning Calorimetry (DSC): DSC measurements were carried out on a Perkin Elmer DSC-7. The samples were placed into gold crucibles that were sealed under nitrogen. The measurements were performed with a heating rate of 10 or 20 °C min^-1 over the temperature range from -50 °C to about 200°C.

## CCC1(c2c[nH]cn2)Cc2ccc(F)cc2C1.Cl (stereo not shown) [form A, 4-(2-Ethyl-5-fluoro-2,3-dihydro-1H-inden-2-yl)-1H-imidazole hydrochloride]
[1]; suspension of form B* in H2O stirred at room temperature for two days
  aqueous solubility: about 43 g/L
[1]; suspension of form D in H2O stirred at room temperature for two days
  aqueous solubility: about 46 g/L
[1]; water, thermodynamic from solid, suspension of form B in H2O stirred at room temperature for two days
  solubility at 2 days: ~46 mg/mL
[2]
  thermodynamic stability: high thermodynamic stability
